Molecular target: T1, Recombinant human renin (Homo sapiens, UniProt P00797)
T1 sequence (P00797 67-406): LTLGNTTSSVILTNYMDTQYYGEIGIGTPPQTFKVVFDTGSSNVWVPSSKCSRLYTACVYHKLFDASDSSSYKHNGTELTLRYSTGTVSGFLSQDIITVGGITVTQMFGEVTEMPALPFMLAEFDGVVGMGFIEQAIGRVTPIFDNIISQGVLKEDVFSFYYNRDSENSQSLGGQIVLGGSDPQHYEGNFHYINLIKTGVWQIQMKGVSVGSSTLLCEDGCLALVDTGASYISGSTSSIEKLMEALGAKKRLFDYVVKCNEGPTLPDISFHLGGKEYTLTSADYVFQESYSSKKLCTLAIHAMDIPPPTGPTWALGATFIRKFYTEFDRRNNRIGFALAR
Assay: Inhibitory activity against human renin (fluorogenic peptide substrate)
Assay type: biochemical
Settings: 37° C. for 1 hour, read-out: IC50
Procedure: Inhibitory Activity Against Human Renin
A substrate of synthetic peptide (Nma-KHPFH LVIHK(Dnp)-NH2) and test compound were mixed, and fluorescence intensity was assayed using a fluorophotometer before starting an enzymatic reaction (exciting wavelength: 340 nm, measuring wavelength: 460 nm). Recombinant human renin was added and the mixture was incubated at 37° C. for 1 hour, and the fluorescence intensity was measured after the reaction using a fluorophotometer (exciting wavelength: 340 nm, measuring wavelength: 460 nm).

IC50 | Structure (SMILES)
4 nM | COC(=O)NCCCc1cccc([C@@H](C)N(C(=O)[C@H]2CNCCO2)C2CC2)c1 [Example 61]
1 nM | COC(=O)NCCCc1cc(OC)cc([C@@H](C)N(C(=O)[C@H]2CNCCO2)C2CC2)c1 [Example 85]
5.3 nM | COCCCc1cn(C)c2cnc([C@@H](C)N(C(=O)[C@H]3CNCCO3)C3CC3)cc12 [Example 33]
0.4 nM | COCc1cccc2c([C@@H](C)N(C(=O)[C@H]3CNCCO3)C3CC3)nn(CCCNC(=O)OC)c12 [Example 81]
7.2 nM | COCc1ccc([C@@H](C)N(C(=O)[C@H]2CNCCO2)C2CC2)cc1OCCNC(=O)OC [Example 95]
0.6 nM | COC(=O)NCCCn1nc([C@@H](C)N(C(=O)[C@H]2CNCCO2)C2CC2)c2ccc(C)cc21 [Example 29]
1.8 nM | COC(=O)NCCCc1cc([C@@H](C)N(C(=O)[C@H]2CNCCO2)C2CC2)cc(C(C)C)n1 [Example 99]
7.3 nM | COC(=O)NCCn1nc(C)c2ccc([C@@H](C)N(C(=O)[C@H]3CNCCO3)C3CC3)cc21 [Example 9]

Same assay, conditions: 50% inhibitory concentration (IC50) against human renin, 37° C. for 1 hour

IC50 | Structure (SMILES)
0.3 nM | COC(=O)NCCCn1cc([C@@H](C)N(C(=O)[C@H]2CNCCO2)C2CC2)nc1-c1cccc(Cl)c1 [Example 175]
1.8 nM | CCc1nc([C@@H](C)N(C(=O)[C@H]2CNCCO2)C2CC2)cc2c1ncn2CCCOC [Example 388]
6.1 nM | COC(=O)NCCCn1cc(C(C)N(C(=O)[C@H]2CNCCO2)C2CC2)c2ccnc(C)c21 (stereo partly shown) [Example 138]
0.4 nM | COC(=O)NCCCn1nc([C@@H](C)N(C(=O)[C@H]2CNCCO2)C2CC2)cc1-c1cccnc1 [Example 186]
3.1 nM | COC(=O)NCCCn1nc([C@@H](C)N(C(=O)[C@H]2CNC[C@@H](C(F)(F)F)O2)C2CC2)c2ccc(C)nc21 [Example 239]
1.4 nM | COC(=O)NCCCc1cc([C@@H](C)N(C(=O)[C@H]2CNC[C@@H](C)O2)C2CC2)nn1-c1ccc(C(F)(F)F)cc1 [Example 354]
0.5 nM | COC(=O)NCCCn1cc([C@@H](C)N(C(=O)[C@H]2CNC[C@@H](C(F)(F)F)O2)C2CC2)nc1-c1ccccc1 [Example 203]
1.2 nM | COC(=O)NCCCn1nc([C@@H](C)N(C(=O)[C@H]2CN[C@@H](COCC(F)(F)F)CO2)C2CC2)c2ccc(C)nc21 [Example 278]
2.2 nM | COCC(C)Oc1ncc(C(C)N(C(=O)C2CNCCO2)C2CC2)nc1CCCNC(=O)OC (stereo not shown) [Example 436]
0.8 nM | COC(=O)NCCCc1cc([C@@H](C)N(C(=O)[C@H]2CNCCO2)C2CC2)sc1C(C)=O [Example 441]
2.6 nM | CCc1cc([C@@H](C)N(C(=O)[C@H]2CNC[C@@H](C)O2)C2CC2)nc2c1cnn2CCCOC [Example 380]
1.3 nM | COC(=O)NCCCc1cc([C@@H](C)N(C(=O)[C@H]2CNCCO2)C2CC2)sc1-c1ccccc1CNS(=O)(=O)C(F)(F)F [Example 284]
0.3 nM | COC(=O)NCCCn1nc([C@@H](C)N(C(=O)[C@H]2CNCCO2)C2CC2)c2c1C(C)(C)CC2 [Example 233]
1.3 nM | COC(=O)NCCCc1sc([C@@H](C)N(C(=O)[C@H]2CNCCO2)C2CC2)cc1-c1ccccc1CO [Example 435]
0.6 nM | COC(=O)NCCCc1cc([C@@H](C)N(C(=O)[C@H]2CNC[C@@H](C)O2)C2CC2)cc(OC)n1 [Example 238]
3.5 nM | CCOc1ncc(C(C)N(C(=O)[C@H]2CNC[C@@H](C)O2)C2CC2)nc1CCCNC(=O)OC (stereo partly shown) [Example 395]
0.8 nM | COC(=O)NCCCc1cc([C@@H](C)N(C(=O)[C@H]2CNCCO2)C2CC2)sc1-c1ccccc1C(=O)NS(C)(=O)=O [Example 287]
3 nM | C[C@H](c1cn(Cc2ccccc2)c(-c2ccccc2)n1)N(C(=O)[C@H]1CNCCO1)C1CC1 [Example 194]
0.8 nM | COC(=O)NCCCc1cc([C@@H](C)N(C(=O)[C@H]2CNCCO2)C2CC2)cc2ncccc12 [Example 149]

IC50 | Structure (SMILES)
3.9 nM | COC(=O)NCCCc1cc([C@@H](C)N(C(=O)[C@H]2CNCCO2)C2CC2)sc1-c1cc(C(F)(F)F)ccc1C(=O)OC [Example 262]
1.1 nM | COC(=O)NCCCc1nc([C@@H](C)N(C(=O)[C@H]2CNCCO2)C2CC2)sc1-c1ccc(C)nc1 [Example 408]
0.4 nM | COC[C@@H]1CNC[C@H](C(=O)N(C2CC2)[C@@H](C)c2cnc(OC)c(CCCNC(=O)OC)c2)O1 [Example 310]
7 nM | C[C@@H]1CNC[C@H](C(=O)N(C2CC2)[C@H](C)c2cc(Cc3ccccc3)c(-c3ccccc3-c3nnn[nH]3)s2)O1 [Example 296]
3.8 nM | COC(=O)NCCCc1sc([C@H](C)N(C(=O)[C@H]2CNCCO2)C2CC2)cc1-c1cnc(N)nc1 [Example 431]
0.3 nM | COC(=O)NCCCc1cc([C@@H](C)N(C(=O)[C@H]2CNCCO2)C2CC2)nn1-c1ccc(F)cc1 [Example 221]
0.4 nM | COC(=O)NCCCc1cc([C@@H](C)N(C(=O)[C@H]2CNCCO2)C2CC2)sc1-c1ccccc1C(=O)NS(=O)(=O)c1ccccc1 [Example 288]
0.1 nM | COC(=O)NCCCn1nc([C@@H](C)N(C(=O)[C@H]2CNCCO2)C2CC2)c(F)c1-c1ccccn1 [Example 216]
1 nM | COC(=O)NCCCc1cc([C@@H](C)N(C(=O)[C@H]2CNCCO2)C2CC2)sc1C#CC(C)(C)O [Example 423]
0.7 nM | COC(=O)NCCCc1cc([C@@H](C)N(C(=O)[C@H]2CNCCO2)C2CC2)nn1-c1ccccc1OC [Example 243]
0.7 nM | COC(=O)NCCCn1cc([C@@H](C)N(C(=O)[C@H]2CNCCO2)C2CC2)nc1C(C)C [Example 181]
0.6 nM | COC(=O)NCCCc1cc([C@@H](C)N(C(=O)[C@H]2CNCCO2)C2CC2)sc1-c1cnc(N)nc1 [Example 412]
3.2 nM | COCCOc1cc([C@H](C)N(C(=O)[C@H]2CNC[C@@H](COC)O2)C2CC2)cc(CCCNC(=O)OC)n1 [Example 384]
2 nM | COC(=O)NCCCc1nc([C@@H](C)N(C(=O)[C@H]2CNCCO2)C2CC2)sc1-c1cnn(C)c1 [Example 413]
0.6 nM | COC[C@@H]1CNC[C@H](C(=O)N(C2CC2)[C@H](C)c2cc(CCCNC(=O)OC)nc(C(F)(F)F)c2)O1 [Example 324]
1.1 nM | COC(=O)NCCCc1cc([C@@H](C)N(C(=O)[C@H]2CNC[C@@H](C)O2)C2CC2)nn1-c1cccc(C(F)(F)F)c1 [Example 349]
0.8 nM | CCc1nc([C@@H](C)N(C(=O)[C@H]2CNCCO2)C2CC2)cc2c1c(C)cn2CCCOC [Example 140]
0.4 nM | COC(=O)NCCCc1cc([C@@H](C)N(C(=O)[C@H]2CNC[C@@H](C)O2)C2CC2)nn1-c1ccc(F)cc1 [Example 351]
7.6 nM | COC(=O)NCCCc1nc(C(C)N(C(=O)[C@H]2CNCCO2)C2CC2)nn1-c1cccc(Cl)c1 (stereo partly shown) [Example 360]

IC50 | Structure (SMILES)
6.8 nM | COC(=O)NCCCn1nc([C@@H](C)N(C(=O)[C@H]2CN[C@@H](CF)CO2)C2CC2)c2ccc(C)nc21 [Example 265]
0.6 nM | COC(=O)NCCCn1cc([C@@H](C)N(C(=O)[C@H]2CNCCO2)C2CC2)c2ncc(C(C)C)nc21 [Example 162]
0.2 nM | COC(=O)NCCCc1cc([C@@H](C)N(C(=O)[C@H]2CNCCO2)C2CC2)nc2c1CCCC2 [Example 122]
0.6 nM | COC(=O)NCCCc1cc([C@H](C)N(C(=O)[C@H]2CNCCO2)C2CC2)cnc1C1CCOCC1 [Example 317]
5.3 nM | COC[C@H]1CO[C@@H](C(=O)N(C2CC2)[C@@H](C)c2nn(CCCNC(=O)OC)c(-c3ccccn3)c2C)CN1 [Example 338]
1.5 nM | COC(=O)NCCCc1sc([C@@H](C)N(C(=O)[C@H]2CNCCO2)C2CC2)nc1-c1ccccc1 [Example 206]
1.4 nM | COC(=O)NCCCc1cc(C(C)N(C(=O)[C@H]2CNCCO2)C2CC2)sc1C1CCOCC1 (stereo partly shown) [Example 419]
3.5 nM | COC(=O)NC/C=C/c1cc([C@@H](C)N(C(=O)[C@H]2CNCCO2)C2CC2)nn1-c1ccccc1 [Example 357]
1.4 nM | COCCCCn1nc([C@@H](C)N(C(=O)[C@H]2CNCCO2)C2CC2)cc1-c1ccccn1 [Example 205]
2 nM | COC(=O)NCCCc1sc([C@@H](C)N(C(=O)[C@H]2CNCCO2)C2CC2)cc1-c1ccccc1C(=O)OC [Example 434]
6.9 nM | C[C@H](c1cn(Cc2cccc(OC(F)(F)F)c2)c(-c2ccccc2)n1)N(C(=O)[C@H]1CNCCO1)C1CC1 [Example 207]
1.7 nM | COC(=O)NCCCc1cc([C@@H](C)N(C(=O)[C@H]2CNC[C@@H](C(F)(F)F)O2)C2CC2)nn1-c1ccccc1 [Example 367]
0.4 nM | COC(=O)NCCCn1cc([C@@H](C)N(C(=O)[C@H]2CNCCO2)C2CC2)nc1-c1ccc(C)cc1 [Example 163]
8.8 nM | COC(=O)NCCCc1cc(C(C)N(C(=O)[C@H]2CNCCO2)C2CC2)sc1-c1ccc(N)nc1 (stereo partly shown) [Example 425]
0.4 nM | COC[C@@H]1CNC[C@H](C(=O)N(C2CC2)[C@H](C)c2cn(CCCNC(=O)OC)c3ncccc23)O1 [Example 292]
0.3 nM | COC(=O)NCCCn1cc([C@@H](C)N(C(=O)[C@H]2CNCCO2)C2CC2)nc1-c1ccccc1C [Example 179]
2.8 nM | COC[C@H]1CO[C@@H](C(=O)N(C2CC2)[C@H](C)c2cc(CCCNC(=O)OC)n(C(C)C)n2)CN1 [Example 300]
3.2 nM | COC(=O)NCCCn1nc([C@@H](C)N(C(=O)[C@H]2CN[C@@H](CO)CO2)C2CC2)c2ccc(C)nc21 [Example 258]

— patent publication US9556159B2, “Renin inhibitor” (MITSUBISHI TANABE PHARMA CORPORATION, priority 2012, dated 2017)
